Results: ChEMBL document CHEMBL3137667, “[Drug-induced liver injury; fourteenth updated edition of the bibliographic database of liver injuries and related drugs]” (Gastroenterol Clin Biol, 2004)

Experiments:
[1] = human
[2] = human; remark: listed apart in the source
[3] = Highest frequency of moderate liver toxicity observed during clinical trials, expressed as a percentage. [column '% BIOL' in source]; settings: human
[4] = human; remark: listed apart in the source
[5] = human, serum, 4383 h
[6] = Highest frequency of acute liver toxicity observed during clinical trials, expressed as a percentage. [column '% AIGUE' in source]; settings: human
[7] = human; remark: listed apart in the source
[8] = human; remark: listed apart in the source
[9] = human; remark: listed apart in the source
[10] = human; remark: listed apart in the source
[11] = human, serum
[12] = human; remark: listed apart in the source
[13] = human; remark: listed apart in the source
[14] = human, serum; remark: listed apart in the source
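Throughout, for Hepatotoxicity (association with vascular disease): count of indexed literature references reporting vascular liver injury in humans, e.g. peliosis hepatitis, hepatic veno-occlusive disease or Budd-Chiari syndrome.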
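Throughout, for Hepatotoxicity (benign tumour): value is a count of indexed literature references citing a benign tumour confirmed by histopathology.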
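Throughout, for Hepatotoxicity (choleostasis): human cholestatic liver injury, shown by histopathology or by peak ALT or AST elevation over alkaline phosphatase ratio below 2, value counts indexed literature reports.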
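Throughout, for Hepatotoxicity (chronic liver disease): chronic liver injury confirmed by histopathology or persistently raised serum aminotransferase activity beyond 6 months, value given as the count of indexed literature references.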
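Throughout, for Hepatotoxicity (cirrhosis): value is a count of indexed literature references reporting cirrhosis confirmed by histopathology.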
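Throughout, for Hepatotoxicity (cytolytic): human cytolytic liver injury, shown by histopathology or by a ratio above 5 of peak ALT or AST elevation to alkaline phosphatase elevation, value counts indexed references.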
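Throughout, for Hepatotoxicity (granulomatous hepatitis): value is a count of indexed literature references reporting granulomatous liver disease confirmed by histopathology.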
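Throughout, for Hepatotoxicity (malignant tumour): malignant tumour confirmed by histopathology, value gives the count of indexed literature references reporting it.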
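Throughout, for Hepatotoxicity (severe hepatitis): human clinical data: severe hepatitis, meaning potentially life-threatening liver failure or clinically observed cases, the value counts how many indexed literature references report it.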
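Throughout, for Hepatotoxicity (steatosis): steatosis confirmed by histopathology, value is the count of indexed references.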

Compound	Hepatotoxicity (benign tumour) [1]	Hepatotoxicity (cytolytic) ([2]; Liver)	Hepatotoxicity (moderate) ([3]; Liver)	Hepatotoxicity (severe hepatitis) ([4]; Liver)	Hepatotoxicity (chronic liver disease) [5]	Hepatotoxicity (acute) ([6]; Liver)	Hepatotoxicity (steatosis) [7]	Hepatotoxicity (cirrhosis) [8]	Hepatotoxicity (granulomatous hepatitis) ([9]; Liver)	Hepatotoxicity (association with vascular disease) [10]	Hepatotoxicity (moderate) [11]	Hepatotoxicity (choleostasis) ([12]; Liver)	Hepatotoxicity (malignant tumour) [13]	Hepatotoxicity (cytolytic) [2]	Hepatotoxicity (moderate) [3]	Hepatotoxicity (severe hepatitis) [4]	Hepatotoxicity (acute) [6]	Hepatotoxicity (granulomatous hepatitis) [9]	Hepatotoxicity (choleostasis) [12]	Hepatotoxicity (acute) [14]
CC(C)(C)NCC(O)c1ccc(O)c(CO)c1 (stereo unspecified) [ALBUTEROL]	0	0	0%	0	0	4%	0	0	0	0	0	0	0	–	–	–	–	–	–	–
CC(C)NCC(O)COc1cccc2[nH]ccc12 (stereo unspecified) [PINDOLOL]	0	–	–	–	0	–	0	0	–	0	1	–	0	0	7%	0	0%	0	0	–
CARBETIMER	0	–	–	–	0	–	0	0	–	0	2	–	0	0	–	0	0%	0	0	0
CC1CS(=O)(=O)CCN1/N=C/c1ccc([N+](=O)[O-])o1 (stereo unspecified) [NIFURTIMOX]	0	0	0%	0	0	–	0	0	0	0	0	0	0	–	–	–	–	–	–	–
C#C[C@]1(O)CC[C@H]2[C@@H]3CCC4=CC(=O)CC[C@@H]4[C@H]3CC[C@@]21CC [LEVONORGESTREL]	0	0	0.4%	0	0	–	0	0	0	0	1	0	0	–	–	–	–	–	–	–
Nc1ccc(S(=O)(=O)Nc2ccccn2)cc1 [SULFAPYRIDINE]	0	–	0%	0	0	–	0	0	–	0	0	–	0	0	–	–	–	0	0	–
CCn1cc(C(=O)O)c(=O)c2cc(F)c(N3CCN(C)CC3)cc21 [PEFLOXACIN]	0	–	16.7%	0	0	0%	0	0	–	–	5	–	0	0	–	–	–	0	0	0
O=c1oc2ccccc2c(O)c1Cc1c(O)c2ccccc2oc1=O [DICUMAROL]	0	–	–	–	0	–	0	0	–	0	3	–	0	0	0%	0	–	0	0	–
C[C@]12C=CC(=O)C=C1CC[C@@H]1[C@@H]2CC[C@@]2(C)[C@H]1CC[C@]2(C)O (stereo in doubt; form 2) [METHANDROSTENOLONE]	0	–	–	–	–	–	–	–	–	–	–	–	1	–	–	–	–	–	1	1
CO[C@@]1(NC(=O)CSC(F)F)C(=O)N2C(C(=O)O)=C(CSc3nnnn3CCO)CO[C@@H]21 [FLOMOXEF]	0	–	–	–	0	–	0	0	–	0	55	–	0	0	33.3%	0	0%	0	0	–
Oc1ncc(N(CCCl)CCCl)c(O)n1 [URACIL MUSTARD]	0	1	0%	0	1	–	0	0	0	0	0	0	0	–	–	–	–	–	–	–
CC(C)(C(=O)O)c1ccc(C(O)CCCN2CCC(C(O)(c3ccccc3)c3ccccc3)CC2)cc1 (stereo unspecified) [FEXOFENADINE]	0	0	1.8%	0	0	–	0	0	0	0	1	0	0	–	–	–	–	–	–	–
Oc1c(Cl)c(Cl)c(Cl)c(Cl)c1Cl [PENTACHLOROPHENOL]	0	–	–	–	1	–	1	0	–	0	0	–	0	0	0%	0	–	0	0	–
CCn1nc(C(=O)O)c(=O)c2cc3c(cc21)OCO3 [CINOXACIN]	0	–	–	–	0	–	0	0	–	0	3	–	0	0	1%	0	0%	0	0	–
NC(=O)c1csc([C@@H]2O[C@H](CO)[C@@H](O)[C@H]2O)n1 [TIAZOFURIN]	0	–	–	–	0	–	0	0	–	0	7	–	0	0	62.5%	0	0%	0	0	–
CC(=O)NC[C@H]1CN(c2ccc(N3CCOCC3)c(F)c2)C(=O)O1 [LINEZOLID]	0	–	–	–	0	–	0	0	–	0	1	–	0	0	1%	0	–	0	0	–
C#CC(C)(O)CC (stereo unspecified) [MEPARFYNOL]	0	–	–	–	0	–	0	0	–	0	0	–	0	0	0%	0	–	0	1	–
COc1cccc2c1C(=O)c1c(O)c3c(c(O)c1C2=O)C[C@@](O)(C(=O)CO)C[C@@H]3O[C@H]1C[C@H](N)[C@@H](O)[C@H](C)O1 [EPIRUBICIN]	0	–	–	–	0	–	0	0	–	0	3	–	0	0	6.4%	0	–	0	0	0
